Results taken from paper PMC6308032 (Molecular Metabolism, 2018).

What was measured:
healthy subjects = assay: Pharmacodynamics; type: in vivo, human; conditions: MAD, dulaglutide 1.5 mg/wk, LSM
[1] = Clinical pharmacokinetics, SAD part; type: in vivo; conditions: human; for AUC(0-inf) / CL/F / Cmax / Tmax / Vd/F / half-life: plasma, sc
[2] = Clinical pharmacokinetics, MAD part; type: in vivo; conditions: human, SC once weekly
patients with T2DM = assay: Adverse events, Phase 1b POC part; type: in vivo, human; conditions: for Any TEAE: T2DM patients
[3] = tested on: healthy subjects and patients with T2DM; assay: Other safety laboratory parameters; type: in vivo, human
[4] = Immunogenicity, anti-drug antibody; type: in vivo, human; conditions: whole study
[5] = tested on: healthy subjects and patients with T2DM; assay: ECG analysis; type: in vivo, human

Dulaglutide: selective GLP-1 receptor agonist, positive control, 1.5 mg/0.5 mL single-use pen
Body Weight Change from Baseline, Day 29 (healthy subjects): -1.3 kg

CC[C@H](C)[C@H](NC(=O)[C@H](CC(C)C)NC(=O)[C@H](Cc1c[nH]c2ccccc12)NC(=O)[C@H](CCC(N)=O)NC(=O)[C@@H](NC(=O)[C@H](Cc1ccccc1)NC(=O)[C@H](C)NC(=O)[C@H](CCCCNC(=O)COCCOCCNC(=O)COCCOCCNC(=O)CC[C@H](NC(=O)CCCCCCCCCCCCCCCCCCC(=O)O)C(=O)O)NC(=O)[C@H](CCC(N)=O)NC(=O)[C@H](C)NC(=O)[C@@H](NC(=O)[C@H](CCCCN)NC(=O)[C@H](CC(=O)O)NC(=O)[C@H](CC(C)C)NC(=O)C(C)(C)NC(=O)[C@@H](NC(=O)[C@H](CO)NC(=O)[C@H](Cc1ccc(O)cc1)NC(=O)[C@H](CC(=O)O)NC(=O)[C@H](CO)NC(=O)[C@@H](NC(=O)[C@H](Cc1ccccc1)NC(=O)[C@@H](NC(=O)CNC(=O)[C@H](CCC(=O)O)NC(=O)C(C)(C)NC(=O)[C@@H](N)Cc1ccc(O)cc1)[C@@H](C)O)[C@@H](C)O)[C@@H](C)CC)[C@@H](C)CC)C(C)C)C(=O)N[C@@H](C)C(=O)NCC(=O)NCC(=O)N1CCC[C@H]1C(=O)N[C@@H](CO)C(=O)N[C@@H](CO)C(=O)NCC(=O)N[C@@H](C)C(=O)N1CCC[C@H]1C(=O)N1CCC[C@H]1C(=O)N1CCC[C@H]1C(=O)N[C@@H](CO)C(N)=O [LY3298176]
time of maximum concentration after dosing ([1]; SC, over the doses studied): 24 to 48 h | AUC(0-inf) ([1]; 0.25 mg): 5760 ng·h/mL | CL/F ([1]; 0.25 mg): 0.723 mL/min | Cmax ([1]; 0.25 mg): 26 ng/mL | Tmax ([1]; 0.25 mg): 48 h | Vd/F ([1]; 0.25 mg): 7.26 L | half-life ([1]; 0.25 mg): 116 h | AUC(0-inf) ([1]; 0.5 mg): 12000 ng·h/mL | CL/F ([1]; 0.5 mg): 0.693 mL/min | Cmax ([1]; 0.5 mg): 57.7 ng/mL | Tmax ([1]; 0.5 mg): 48 h | Vd/F ([1]; 0.5 mg): 7.46 L | half-life ([1]; 0.5 mg): 124 h | AUC(0-inf) ([1]; 1 mg): 22600 ng·h/mL | CL/F ([1]; 1 mg): 0.738 mL/min | Cmax ([1]; 1 mg): 108 ng/mL | Tmax ([1]; 1 mg): 24 h | Vd/F ([1]; 1 mg): 6.76 L | AUC(0-inf) ([1]; 2.5 mg): 53200 ng·h/mL | CL/F ([1]; 2.5 mg): 0.783 mL/min | Cmax ([1]; 2.5 mg): 231 ng/mL | Tmax ([1]; 2.5 mg): 24 h | Vd/F ([1]; 2.5 mg): 8.15 L | AUC(0-inf) ([1]; 5 mg): 90500 ng·h/mL | CL/F ([1]; 5 mg): 0.922 mL/min | Cmax ([1]; 5 mg): 397 ng/mL | Tmax ([1]; 5 mg): 24 h | Vd/F ([1]; 5 mg): 9.8 L | AUC(0-inf) ([1]; 8 mg): 169000 ng·h/mL | CL/F ([1]; 8 mg): 0.787 mL/min | Cmax ([1]; 8 mg): 874 ng/mL | Tmax ([1]; 8 mg): 48 h | Vd/F ([1]; 8 mg): 7.55 L | half-life ([1]; mean half-life): ~120 h | average accumulation following four weekly doses [2]: 1.58 | mean steady-state volume of distribution [2]: 9.5 L | Abdominal distension (patients with T2DM; 0.5 mg, N=9): 0 (0.0) n (%) | Abdominal pain (patients with T2DM; 0.5 mg, N=9): 0 (0.0) n (%) | Acute pancreatitis (patients with T2DM; 0.5 mg, N=9): 0 (0.0) n (%) | Decreased appetite (patients with T2DM; 0.5 mg, N=9): 2 (22.2) n (%) | Dermatitis allergic (patients with T2DM; 0.5 mg, N=9): 0 (0.0) n (%) | Diarrhoea (patients with T2DM; 0.5 mg, N=9): 1 (11.1) n (%) | Dyspepsia (patients with T2DM; 0.5 mg, N=9): 0 (0.0) n (%) | Eructation (patients with T2DM; 0.5 mg, N=9): 0 (0.0) n (%) | Gastrooesophageal reflux disease (patients with T2DM; 0.5 mg, N=9): 0 (0.0) n (%) | Headache (patients with T2DM; 0.5 mg, N=9): 1 (11.1) n (%) | Hepatic enzyme increased (patients with T2DM; 0.5 mg, N=9): 0 (0.0) n (%) | Injection site reaction (patients with T2DM; 0.5 mg, N=9): 0 (0.0) n (%) | Nausea (patients with T2DM; 0.5 mg, N=9): 1 (11.1) n (%) | Pancreatic enzyme increased (patients with T2DM; 0.5 mg, N=9): 0 (0.0) n (%) | Serious adverse events (patients with T2DM; 0.5 mg, N=9): 0 (0.0) n (%) | Severe hypoglycaemia (patients with T2DM; 0.5 mg, N=9): 0 (0.0) n (%) | Study discontinuation due to adverse events (patients with T2DM; 0.5 mg, N=9): 0 (0.0) n (%) | TEAE Mild, events (patients with T2DM; 0.5 mg, N=9): 15 events | TEAE Moderate, events (patients with T2DM; 0.5 mg, N=9): 0 events | TEAE Severe, events (patients with T2DM; 0.5 mg, N=9): 0 events | Total hypoglycaemia (≤70 mg/dL) (patients with T2DM; 0.5 mg, N=9): 0 (0.0) n (%) | Vomiting (patients with T2DM; 0.5 mg, N=9): 1 (11.1) n (%) | Weight decrease (TEAE) (patients with T2DM; 0.5 mg, N=9): 0 (0.0) n (%) | Abdominal distension (patients with T2DM; 5 mg, N=9): 1 (11.1) n (%) | Abdominal pain (patients with T2DM; 5 mg, N=9): 0 (0.0) n (%) | Acute pancreatitis (patients with T2DM; 5 mg, N=9): 0 (0.0) n (%) | Decreased appetite (patients with T2DM; 5 mg, N=9): 6 (66.7) n (%) | Dermatitis allergic (patients with T2DM; 5 mg, N=9): 0 (0.0) n (%) | Diarrhoea (patients with T2DM; 5 mg, N=9): 1 (11.1) n (%) | Dyspepsia (patients with T2DM; 5 mg, N=9): 0 (0.0) n (%) | Eructation (patients with T2DM; 5 mg, N=9): 0 (0.0) n (%) | Gastrooesophageal reflux disease (patients with T2DM; 5 mg, N=9): 1 (11.1) n (%) | Headache (patients with T2DM; 5 mg, N=9): 0 (0.0) n (%) | Hepatic enzyme increased (patients with T2DM; 5 mg, N=9): 0 (0.0) n (%) | Injection site reaction (patients with T2DM; 5 mg, N=9): 0 (0.0) n (%) | Nausea (patients with T2DM; 5 mg, N=9): 1 (11.1) n (%) | Pancreatic enzyme increased (patients with T2DM; 5 mg, N=9): 0 (0.0) n (%) | Serious adverse events (patients with T2DM; 5 mg, N=9): 0 (0.0) n (%) | Severe hypoglycaemia (patients with T2DM; 5 mg, N=9): 0 (0.0) n (%) | Study discontinuation due to adverse events (patients with T2DM; 5 mg, N=9): 3 (33.3) n (%) | TEAE Mild, events (patients with T2DM; 5 mg, N=9): 17 events | TEAE Moderate, events (patients with T2DM; 5 mg, N=9): 0 events | TEAE Severe, events (patients with T2DM; 5 mg, N=9): 0 events | Total hypoglycaemia (≤70 mg/dL) (patients with T2DM; 5 mg, N=9): 0 (0.0) n (%) | Vomiting (patients with T2DM; 5 mg, N=9): 0 (0.0) n (%) | Weight decrease (TEAE) (patients with T2DM; 5 mg, N=9): 0 (0.0) n (%) | Abdominal distension (patients with T2DM; 5/5/10/10 mg, N=12): 2 (16.7) n (%) | Abdominal pain (patients with T2DM; 5/5/10/10 mg, N=12): 0 (0.0) n (%) | Acute pancreatitis (patients with T2DM; 5/5/10/10 mg, N=12): 0 (0.0) n (%) | Decreased appetite (patients with T2DM; 5/5/10/10 mg, N=12): 5 (41.7) n (%) | Dermatitis allergic (patients with T2DM; 5/5/10/10 mg, N=12): 0 (0.0) n (%) | Diarrhoea (patients with T2DM; 5/5/10/10 mg, N=12): 3 (25.0) n (%) | Dyspepsia (patients with T2DM; 5/5/10/10 mg, N=12): 3 (25.0) n (%) | Eructation (patients with T2DM; 5/5/10/10 mg, N=12): 1 (8.3) n (%) | Gastrooesophageal reflux disease (patients with T2DM; 5/5/10/10 mg, N=12): 1 (8.3) n (%) | Headache (patients with T2DM; 5/5/10/10 mg, N=12): 0 (0.0) n (%) | Hepatic enzyme increased (patients with T2DM; 5/5/10/10 mg, N=12): 1 (8.3) n (%) | Injection site reaction (patients with T2DM; 5/5/10/10 mg, N=12): 0 (0.0) n (%) | Nausea (patients with T2DM; 5/5/10/10 mg, N=12): 1 (8.3) n (%) | Pancreatic enzyme increased (patients with T2DM; 5/5/10/10 mg, N=12): 0 (0.0) n (%) | Serious adverse events (patients with T2DM; 5/5/10/10 mg, N=12): 0 (0.0) n (%) | Severe hypoglycaemia (patients with T2DM; 5/5/10/10 mg, N=12): 0 (0.0) n (%) | Study discontinuation due to adverse events (patients with T2DM; 5/5/10/10 mg, N=12): 0 (0.0) n (%) | TEAE Mild, events (patients with T2DM; 5/5/10/10 mg, N=12): 54 events | TEAE Moderate, events (patients with T2DM; 5/5/10/10 mg, N=12): 1 events | TEAE Severe, events (patients with T2DM; 5/5/10/10 mg, N=12): 0 events | Total hypoglycaemia (≤70 mg/dL) (patients with T2DM; 5/5/10/10 mg, N=12): 2 (16.7) n (%) | Vomiting (patients with T2DM; 5/5/10/10 mg, N=12): 1 (8.3) n (%) | Weight decrease (TEAE) (patients with T2DM; 5/5/10/10 mg, N=12): 2 (16.7) n (%) | Abdominal distension (patients with T2DM; 5/5/10/15 mg, N=12): 7 (58.3) n (%) | Abdominal pain (patients with T2DM; 5/5/10/15 mg, N=12): 2 (16.7) n (%) | Acute pancreatitis (patients with T2DM; 5/5/10/15 mg, N=12): 0 (0.0) n (%) | Decreased appetite (patients with T2DM; 5/5/10/15 mg, N=12): 11 (91.7) n (%) | Dermatitis allergic (patients with T2DM; 5/5/10/15 mg, N=12): 2 (16.7) n (%) | Diarrhoea (patients with T2DM; 5/5/10/15 mg, N=12): 5 (41.7) n (%) | Dyspepsia (patients with T2DM; 5/5/10/15 mg, N=12): 0 (0.0) n (%) | Eructation (patients with T2DM; 5/5/10/15 mg, N=12): 4 (33.3) n (%) | Gastrooesophageal reflux disease (patients with T2DM; 5/5/10/15 mg, N=12): 5 (41.7) n (%) | Headache (patients with T2DM; 5/5/10/15 mg, N=12): 2 (16.7) n (%) | Hepatic enzyme increased (patients with T2DM; 5/5/10/15 mg, N=12): 1 (8.3) n (%) | Injection site reaction (patients with T2DM; 5/5/10/15 mg, N=12): 0 (0.0) n (%) | Nausea (patients with T2DM; 5/5/10/15 mg, N=12): 6 (50.0) n (%) | Pancreatic enzyme increased (patients with T2DM; 5/5/10/15 mg, N=12): 1 (8.3) n (%) | Serious adverse events (patients with T2DM; 5/5/10/15 mg, N=12): 0 (0.0) n (%) | Severe hypoglycaemia (patients with T2DM; 5/5/10/15 mg, N=12): 0 (0.0) n (%) | Study discontinuation due to adverse events (patients with T2DM; 5/5/10/15 mg, N=12): 0 (0.0) n (%) | TEAE Mild, events (patients with T2DM; 5/5/10/15 mg, N=12): 87 events | TEAE Moderate, events (patients with T2DM; 5/5/10/15 mg, N=12): 9 events | TEAE Severe, events (patients with T2DM; 5/5/10/15 mg, N=12): 0 events | Total hypoglycaemia (≤70 mg/dL) (patients with T2DM; 5/5/10/15 mg, N=12): 1 (8.3) n (%) | Vomiting (patients with T2DM; 5/5/10/15 mg, N=12): 9 (75.0) n (%) | Weight decrease (TEAE) (patients with T2DM; 5/5/10/15 mg, N=12): 2 (16.7) n (%) | Any TEAE (patients with T2DM; 0.5 mg QW x4 SC, N=9): 5 (55.6) n (%) | Any TEAE (patients with T2DM; 5 mg QW x4 SC, N=9): 7 (77.8) n (%) | Any TEAE (patients with T2DM; 5/5/10/10 mg QW SC, N=12): 10 (83.3) n (%) | Any TEAE (patients with T2DM; 5/5/10/15 mg QW SC, N=12): 11 (91.7) n (%) | lipase and amylase, mean values compared to baseline [3]: Increases from baseline in mean values of lipase and amylase within the normal range | subjects who developed treatment-emergent or treatment-boosted ADAs [4]: Four | drug-related QT prolongation [5]: no signal of drug-related QT prolongation
